Assay results taken from PubChem BioAssay AID2060602 (Molecular Pharmacology Branch, DTP, NCI, 2025).
pIC50: −log10 of the molar value. Values joined by “and” are separate entries in the source; they are usually repeats but may differ in a detail not shown here. Equal entries are not always repeated.

Test system: 648629-189-R-J1-PDC complex spheroids viability
Test: Anticancer human tumor 648629-189-R-J1-PDC patient-derived bladder carcinoma cell line growth inhibition [CLK]
Settings: for viability, T/C: stronger effect = lower value
Method in brief: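 Multi-cell-type spheroids combined patient-derived tumor cells with HUVEC endothelial cells and human mesenchymal stem cells. Paired agents were dosed in half-log steps down from about clinical Cmax, or from 10 microM where Cmax was unknown.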

[1] = curve of first compound, second compound 0.0316 µM
[2] = curve of first compound, second compound 0.1 µM
[3] = curve of first compound, second compound 0.316 µM
[4] = curve of first compound, second compound 1 µM
[5] = curve of first compound, second compound 3.16 µM
[6] = curve of first compound, second compound 10 µM
[7] = second compound 0.0316 µM, first compound 0.0316 µM
[8] = second compound 0.0316 µM, first compound 0.1 µM
[9] = second compound 0.0316 µM, first compound 0.316 µM
[10] = second compound 0.0316 µM, first compound 1 µM
[11] = second compound 0.0316 µM, first compound 3.16 µM
[12] = second compound 0.0316 µM, first compound 10 µM
[13] = second compound 0.1 µM, first compound 0.0316 µM
[14] = second compound 0.1 µM, first compound 0.1 µM
[15] = second compound 0.1 µM, first compound 0.316 µM
[16] = second compound 0.1 µM, first compound 1 µM
[17] = second compound 0.1 µM, first compound 3.16 µM
[18] = second compound 0.1 µM, first compound 10 µM
[19] = second compound 0.316 µM, first compound 0.0316 µM
[20] = second compound 0.316 µM, first compound 0.1 µM
[21] = second compound 0.316 µM, first compound 0.316 µM
[22] = second compound 0.316 µM, first compound 1 µM
[23] = second compound 0.316 µM, first compound 3.16 µM
[24] = second compound 0.316 µM, first compound 10 µM
[25] = second compound 1 µM, first compound 0.0316 µM
[26] = second compound 1 µM, first compound 0.1 µM
[27] = second compound 1 µM, first compound 0.316 µM
[28] = second compound 1 µM, first compound 1 µM
[29] = second compound 1 µM, first compound 3.16 µM
[30] = second compound 1 µM, first compound 10 µM
[31] = second compound 3.16 µM, first compound 0.0316 µM
[32] = second compound 3.16 µM, first compound 0.1 µM
[33] = second compound 3.16 µM, first compound 0.316 µM
[34] = second compound 3.16 µM, first compound 1 µM
[35] = second compound 3.16 µM, first compound 3.16 µM
[36] = second compound 3.16 µM, first compound 10 µM
[37] = second compound 10 µM, first compound 0.0316 µM
[38] = second compound 10 µM, first compound 0.1 µM
[39] = second compound 10 µM, first compound 0.316 µM
[40] = second compound 10 µM, first compound 1 µM
[41] = second compound 10 µM, first compound 3.16 µM
[42] = second compound 10 µM, first compound 10 µM
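Throughout, for viability, T/C: drug exposure lasted seven days before viability readout; 100% = DMSO vehicle control wells.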

O=c1[nH]cc(F)c(=O)[nH]1 + CN1CCN(c2cc(C(=O)Nc3cc4cc(-c5cnn(C)c5)ccc4cn3)ccn2)CC1
pIC50 [1]: 5.83 | pIC50 [2]: 5.97 | pIC50 [3]: > 7.50 | pIC50 [4]: > 7.50 | pIC50 [5]: > 7.50 | pIC50 [6]: > 7.50 | viability, T/C [7]: 114% | viability, T/C [8]: 121% | viability, T/C [9]: 83% | viability, T/C [10]: 63.3% | viability, T/C [11]: 30.7% | viability, T/C [12]: 21.9% | viability, T/C [13]: 114% | viability, T/C [14]: 97.7% | viability, T/C [15]: 96.3% | viability, T/C [16]: 49.1% | viability, T/C [17]: 33.7% | viability, T/C [18]: 21.9% | viability, T/C [19]: 40.7% | viability, T/C [20]: 40.6% | viability, T/C [21]: 34.1% | viability, T/C [22]: 29.9% | viability, T/C [23]: 23.9% | viability, T/C [24]: 20.7% | viability, T/C [25]: 0.35% | viability, T/C [26]: 0.26% | viability, T/C [27]: 0.78% | viability, T/C [28]: 0.34% | viability, T/C [29]: 0.27% | viability, T/C [30]: 1.43% | viability, T/C [31]: 0.06% | viability, T/C [32]: 1.49% | viability, T/C [33]: 0.1% | viability, T/C [34]: 0.07% | viability, T/C [35]: 0.55% | viability, T/C [36]: 0.1% | viability, T/C [37]: 0.06% | viability, T/C [38]: 0.27% | viability, T/C [39]: 3.05% | viability, T/C [40]: 0.13% | viability, T/C [41]: 1.38% | viability, T/C [42]: 1.3%

CNC(=O)c1ccc(Nc2nc(OC3CCCC3)c3c(-c4ccc5nc(C)oc5c4)c[nH]c3n2)c(OC)c1
viability, T/C (compound 0.0316 µM): 108% [middle of 12 runs] | viability, T/C (compound 0.1 µM): 88.3% [middle of 12 runs] | viability, T/C (compound 0.316 µM): 28% [middle of 12 runs] | viability, T/C (compound 1 µM): 19.8% [middle of 12 runs] | viability, T/C (compound 3.16 µM): 19% [middle of 12 runs] | viability, T/C (compound 10 µM): 20% [middle of 12 runs] | IC50 (compound alone, run of 08/01/2023): 209 nM [middle of 10 runs]

CC1(C)CCC(CN2CCN(c3ccc(C(=O)NS(=O)(=O)c4ccc(NCC5CCOCC5)c([N+](=O)[O-])c4)c(Oc4cnc5[nH]ccc5c4)c3)CC2)=C(c2ccc(Cl)cc2)C1 + CN1CCN(c2cc(C(=O)Nc3cc4cc(-c5cnn(C)c5)ccc4cn3)ccn2)CC1
pIC50 [1]: < 5.00 | pIC50 [2]: < 5.00 | pIC50 [3]: > 7.50 | pIC50 [4]: > 7.50 | pIC50 [5]: > 7.50 | pIC50 [6]: > 7.50 | viability, T/C [7]: 114% | viability, T/C [8]: 112% | viability, T/C [9]: 110% | viability, T/C [10]: 97.4% | viability, T/C [11]: 86.2% | viability, T/C [12]: 66.6% | viability, T/C [13]: 112% | viability, T/C [14]: 116% | viability, T/C [15]: 97.4% | viability, T/C [16]: 107% | viability, T/C [17]: 91.8% | viability, T/C [18]: 56.1% | viability, T/C [19]: 37% | viability, T/C [20]: 52% | viability, T/C [21]: 41.4% | viability, T/C [22]: 47.8% | viability, T/C [23]: 35.7% | viability, T/C [24]: 24.2% | viability, T/C [25]: 0.21% | viability, T/C [26]: 0.41% | viability, T/C [27]: 0.38% | viability, T/C [28]: 0.27% | viability, T/C [29]: 0.36% | viability, T/C [30]: 1.01% | viability, T/C [31]: 0.1% | viability, T/C [32]: 0.35% | viability, T/C [33]: 0.14% | viability, T/C [34]: 0.13% | viability, T/C [35]: 0.12% | viability, T/C [36]: 0.7% | viability, T/C [37]: 0.13% | viability, T/C [38]: 0.17% | viability, T/C [39]: 0.16% | viability, T/C [40]: 0.54% | viability, T/C [41]: 0.17% | viability, T/C [42]: 0.16%

CC1(C)CCC(CN2CCN(c3ccc(C(=O)NS(=O)(=O)c4ccc(NCC5CCOCC5)c([N+](=O)[O-])c4)c(Oc4cnc5[nH]ccc5c4)c3)CC2)=C(c2ccc(Cl)cc2)C1
viability, T/C (compound 0.0316 µM): 102% and 96.3% | viability, T/C (compound 0.1 µM): 94.1% and 86% | viability, T/C (compound 0.316 µM): 99.4% and 93.7% | viability, T/C (compound 1 µM): 88.7% and 93.4% | viability, T/C (compound 3.16 µM): 84.9% and 93.4% | viability, T/C (compound 10 µM): 62% and 110% | pIC50 (curve of compound): < 5.00

C#Cc1c(F)ccc2cc(O)cc(-c3ncc4c(N5CC6CCC(C5)N6)nc(OCC56CCCN5CC(F)C6)nc4c3F)c12 (stereo not given) + CN1CCN(c2cc(C(=O)Nc3cc4cc(-c5cnn(C)c5)ccc4cn3)ccn2)CC1
pIC50 [1]: < 5.00 | pIC50 [2]: < 5.00 | pIC50 [3]: 5.44 | pIC50 [4]: > 7.50 | pIC50 [5]: > 7.50 | pIC50 [6]: > 7.50 | viability, T/C [7]: 122% | viability, T/C [8]: 113% | viability, T/C [9]: 103% | viability, T/C [10]: 122% | viability, T/C [11]: 118% | viability, T/C [12]: 105% | viability, T/C [13]: 102% | viability, T/C [14]: 104% | viability, T/C [15]: 99.1% | viability, T/C [16]: 117% | viability, T/C [17]: 99.5% | viability, T/C [18]: 98% | viability, T/C [19]: 50.1% | viability, T/C [20]: 49.4% | viability, T/C [21]: 50.3% | viability, T/C [22]: 54.3% | viability, T/C [23]: 53% | viability, T/C [24]: 39.9% | viability, T/C [25]: 0.6% | viability, T/C [26]: 0.88% | viability, T/C [27]: 0.41% | viability, T/C [28]: 0.41% | viability, T/C [29]: 0.51% | viability, T/C [30]: 0.64% | viability, T/C [31]: 0.13% | viability, T/C [32]: 0.2% | viability, T/C [33]: 0.15% | viability, T/C [34]: 0.14% | viability, T/C [35]: 0.15% | viability, T/C [36]: 0.15% | viability, T/C [37]: 0.36% | viability, T/C [38]: 0.22% | viability, T/C [39]: 0.15% | viability, T/C [40]: 0.19% | viability, T/C [41]: 0.2% | viability, T/C [42]: 0.16%
